Numbered stars: 1 amine (or outer) side, 2 acyl side, 3 side chain; on linkers, the order of the positions; unused ones are H or OH. Bridge positions count the residues as written; N and C are the ends. Peptide text beside a SMILES is read from it. X1 = NC(=O)[C@@H](CN[*:2])CS[*:1]

One assay deals with Neuronal acetylcholine receptor subunit alpha-6 (Mus musculus) (UniProt Q9R0W9). Description: Displacement of [3H]epibatidine from nAChRalpha6 in mouse brain by autoradiography. The class given is tissue-based. (Loss of bound radioactivity is the signal in a displacement assay; it reports binding, not function.)
Sequence of Neuronal acetylcholine receptor subunit alpha-6 (Mus musculus) (Q9R0W9 whole entry): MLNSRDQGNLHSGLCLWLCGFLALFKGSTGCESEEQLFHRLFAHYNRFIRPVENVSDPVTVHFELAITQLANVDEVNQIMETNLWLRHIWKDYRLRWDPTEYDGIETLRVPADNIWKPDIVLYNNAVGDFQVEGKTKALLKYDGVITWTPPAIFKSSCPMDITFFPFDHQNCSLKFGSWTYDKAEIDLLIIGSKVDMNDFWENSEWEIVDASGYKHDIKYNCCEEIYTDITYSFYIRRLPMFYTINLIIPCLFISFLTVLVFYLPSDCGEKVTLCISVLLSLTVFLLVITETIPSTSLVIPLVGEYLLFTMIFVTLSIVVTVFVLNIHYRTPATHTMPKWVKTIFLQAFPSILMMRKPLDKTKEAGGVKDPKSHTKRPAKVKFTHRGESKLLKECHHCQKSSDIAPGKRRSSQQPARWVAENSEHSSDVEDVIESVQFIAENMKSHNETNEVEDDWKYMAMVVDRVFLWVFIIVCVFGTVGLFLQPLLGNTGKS
In the case of `CC(C)C[C@@H]1NC(=O)[C@H](CC(N)=O)NC(=O)[C@H](CO)NC(=O)[C@H](Cc2cnc[nH]2)NC(=O)[C@H](CCC(=O)O)NC(=O)[C@H](CC(C)C)NC(=O)[C@H](Cc2cnc[nH]2)NC(=O)[C@@H]2CSSC[C@H](NC(=O)CN)C(=O)N[C@@H](CSSC[C@@H](C(N)=O)CNC1=O)C(=O)N[C@@H](CO)C(=O)N[C@@H](CC(N)=O)C(=O)N1CCC[C@H]1C(=O)N[C@@H](C(C)C)C(=O)N2` (H-GCCSNPVCHLEHSNL; disulfide 2-8; linker 3-C via X1), the Imax amounted to 62%.

Test system in another assay: not listed separately
Kind of assay: Antagonist activity at nAChR in Sprague-Dawley rat striatal slices assessed as inhibition of S(-)-nicotine-evoked [3H]dopamine overflow at 100 uM by liquid scintillation counting. It is filed as functional.
For the molecule `CCCC/C=C/CC[n+]1cccc([C@@H]2CCCN2C)c1.[Br-]`, the Imax was found to be 79%. Still for that read-out and setting: to `CCCC[n+]1cccc([C@@H]2CCCN2C)c1.[I-]` belongs 80%; to `CCCCC#CCC[n+]1cccc([C@@H]2CCCN2C)c1.[Br-]`, 47%; to `CCCCCCCCC[n+]1cccc([C@@H]2CCCN2C)c1.[I-]`, 100%. For `CCCCCCCCCCCC[n+]1cccc([C@@H]2CCCN2C)c1.[I-]`, the Imax was determined as 95%.

With `CCCCCCC[n+]1cccc([C@@H]2CCCN2C)c1.[I-]`, the Imax is reported as 75%. On the same count and under the same terms, in the case of `CC[n+]1ccccc1.[I-]` it was 0%; in that of `[I-].[I-].c1cc[n+](CCCCC[n+]2ccccc2)cc1`, 0%.

For `[Br-].[Br-].c1ccc2c(c1)ccc[n+]2CCCCCCCCCCCC[n+]1cccc2ccccc21`, the Imax was 52%. Still for that read-out and setting: to `CNC1CCCc2ncccc21.Cl` (configuration not stated) belongs 87%; to `CCCCCCCC[n+]1cccc([C@@H]2CCCN2C)c1.[I-]`, 88%; to `Cc1ccc[n+](CCCCCCCCCCC[n+]2cccc(C)c2)c1.[Br-].[Br-]`, 68%. Same read-out and setting: to `CN1CCC[C@H]1c1ccc[n+](Cc2ccccc2)c1.[Br-]` belongs 0%; to `Cc1ccc[n+](CCCCCCC[n+]2cccc(C)c2)c1.[Br-].[Br-]`, 54%; to `Cc1ccc[n+](CCCCCCCC[n+]2cccc(C)c2)c1.[I-].[I-]`, 53%. For the molecule `[Br-].[Br-].c1cc[n+](CCCCCCCCC[n+]2ccccc2)cc1`, the Imax was 28%.

Regarding `[Br-].[Br-].c1ccc2c[n+](CCCCCCCCCCC[n+]3ccc4ccccc4c3)ccc2c1`, the Imax worked out at 55%.

Take `[I-].[I-].c1ccc2c[n+](CCCCCCCCCC[n+]3ccc4ccccc4c3)ccc2c1`: the Imax was found to be 65%. Same read-out and setting: to `CN(C)C1CCCc2ccncc21.Cl` (configuration not stated) belongs 68%. Same read-out and setting: to `CCCCCCCCCC[n+]1cccc2c1CC[C@@H]1CCN(C)[C@H]21.[I-]` belongs 93%; to `CCCCCC[n+]1ccccc1.[I-]`, 21%.

Consider `[Br-].[Br-].c1ccc2c(c1)ccc[n+]2CCCCCCCCC[n+]1cccc2ccccc21`, for which the Imax is 58%. Same read-out and setting: in the case of `CCCCCCCCCC[n+]1ccc2c(c1)[C@H]1[C@@H](CC2)CCN1C.[I-]` it was 67%. As to `CNC1CCCc2ccncc21.Cl` (configuration not stated), the Imax is 57%.

Consider `CCCCCCCCC[n+]1ccc2c(c1)[C@H]1[C@@H](CC2)CCN1C.[I-]`, for which the Imax is 56%.

Turning to `CCCCCCC[n+]1ccccc1.[I-]`, the Imax came out at 0%. Regarding `CCCCCCCCCCCCCCCCCCCC[n+]1ccccc1.[Br-]`, the Imax is listed as 60%. The same measure, in the same setting: in the case of `CCC[n+]1cccc([C@@H]2CCCN2C)c1.[I-]` it was 58%; in that of `CCC[n+]1ccccc1.[I-]`, 22%. In the case of `CCCCCCCCCCCCCCC[n+]1ccccc1.[I-]`, the Imax is 58%. Regarding `CCCCCCCC[n+]1ccccc1.[I-]`, the Imax came out at 0%. The same measure, in the same setting: in the case of `CCCCCCCCCCCC[n+]1ccc2c(c1)[C@H]1[C@@H](CC2)CCN1C.[I-]` it was 62%. For `CNC1(C)C2CCC(C2)C1(C)C` (configuration not stated) [MECAMYLAMINE], the Imax amounted to 91%.

With `CCCC[n+]1ccccc1.[I-]`, the Imax was 2%. With `[Br-].[Br-].c1ccc2c[n+](CCCCCCCCC[n+]3ccc4ccccc4c3)ccc2c1`, the Imax stood at 0%. Same read-out and setting: to `CN1CCC[C@H]1c1ccc[n+](C)c1.[I-]` belongs 0%; to `CCCCC/C=C/CCC[n+]1cccc([C@@H]2CCCN2C)c1.[Br-]`, 85%; to `[I-].[I-].c1ccc2c[n+](CCCCCC[n+]3ccc4ccccc4c3)ccc2c1`, 47%. On the same count and under the same terms, in the case of `CCCCCCC#CCC[n+]1cccc([C@@H]2CCCN2C)c1.[Br-]` it was 29%. With `[Br-].[Br-].c1ccc2c[n+](CCCCCCCCCCCC[n+]3ccc4ccccc4c3)ccc2c1`, the Imax is given as 53%.

`[I-].[I-].c1cc[n+](CCCCCCCCCC[n+]2ccccc2)cc1`: the Imax stood at 27%. The same measure, in the same setting: in the case of `Cl.NC1CCCc2ncccc21` (configuration not stated) it was 69%. The same measure, in the same setting: to `CCCCCCCCCC[n+]1cccc(C)c1.[I-]` belongs 73%. On the same count and under the same terms, to `Cl.NC1CCCc2ccncc21` (configuration not stated) belongs 56%. On to `Cc1ccc[n+](CCCCCCCCCC[n+]2cccc(C)c2)c1.[I-].[I-]`, for which the Imax is listed as 63%. The same measure, in the same setting: to `C=CCCCCCCCCC[n+]1cccc([C@@H]2CCCN2C)c1.[Br-]` belongs 87%. Same read-out and setting: to `CCCCCCCC[n+]1ccc2c(c1)[C@H]1[C@@H](CC2)CCN1C.[I-]` belongs 60%. Still for that read-out and setting: to `[Br-].[Br-].c1cc[n+](CCCCCCCCCCCC[n+]2ccccc2)cc1` belongs 91%; to `CN1CCC[C@@H]1c1ccc[n+](CCCCCCCCCCCC[n+]2cccc([C@@H]3CCCN3C)c2)c1.[Br-].[Br-]`, 38%; to `CCCCCCCCCCC[n+]1ccc2c(c1)[C@H]1[C@@H](CC2)CCN1C.[I-]`, 72%. Regarding `CCCCC[n+]1ccccc1.[I-]`, the Imax was 44%.

`CCCCCC[n+]1cccc([C@@H]2CCCN2C)c1.[I-]`: the Imax was found to be 80%.

`CCCCCCCCCCCC[n+]1cccc2c1CC[C@@H]1CCN(C)[C@H]21.[I-]`: the Imax is on record as 25%.

For the molecule `CCCCCCCCCCC[n+]1cccc2c1CC[C@@H]1CCN(C)[C@H]21.[I-]`, the Imax amounted to 79%.

As for `[I-].[I-].c1ccc2c(c1)ccc[n+]2CCCCCCCCCC[n+]1cccc2ccccc21`, the Imax is 76%. As to `[I-].[I-].c1cc[n+](CCCCCCCC[n+]2ccccc2)cc1`, the Imax is 0%. On the same count and under the same terms, to `Cc1ccc[n+](CCCCCCCCC[n+]2cccc(C)c2)c1.[Br-].[Br-]` belongs 63%; to `C=CC[n+]1cccc([C@@H]2CCCN2C)c1.[I-]`, 0%. Regarding `CCCCCCCC[n+]1cccc2c1CC[C@@H]1CCN(C)[C@H]21.[I-]`, the Imax is given as 88%. Turning to `C=CCCCCCC[n+]1cccc([C@@H]2CCCN2C)c1.[Br-]`, the Imax worked out at 87%. Still for that read-out and setting: in the case of `[I-].[I-].c1ccc2c(c1)ccc[n+]2CCCCCC[n+]1cccc2ccccc21` it was 55%; in that of `C[n+]1ccccc1.[I-]`, 0%; in that of `CCCCCCCCC[n+]1cccc2c1CC[C@@H]1CCN(C)[C@H]21.[I-]`, 86%. The same measure, in the same setting: to `Cc1ccc[n+](CCCCCCCCCCCC[n+]2cccc(C)c2)c1.[Br-].[Br-]` belongs 78%; to `CCCCCCCCCCCC[n+]1cccc(C)c1.[I-]`, 63%; to `[I-].[I-].c1ccc2c(c1)ccc[n+]2CCCCCCCC[n+]1cccc2ccccc21`, 71%. On to `CCCC/C=C\CC[n+]1cccc([C@@H]2CCCN2C)c1.[Br-]`, for which the Imax is 83%.

As to `CN(C)C1CCCc2ncccc21.Cl` (configuration not stated), the Imax is 53%. Still for that read-out and setting: in the case of `Cc1ccc[n+](CCCCCC[n+]2cccc(C)c2)c1.[I-].[I-]` it was 7%. The same measure, in the same setting: in the case of `C=CCCCCCCCC[n+]1cccc([C@@H]2CCCN2C)c1.[Br-]` it was 72%. On the same count and under the same terms, in the case of `[I-].[I-].c1ccc2c[n+](CCCCCCCC[n+]3ccc4ccccc4c3)ccc2c1` it was 74%.
